Here are results for seven molecules from article PMC6884535, “Detection of colonic neoplasia in vivo using near-infrared-labeled peptide targeting cMet” (Scientific Reports, 2019).

In one data set the test system is CCD841 cells. Description: Alamar blue growth assay, CCD841 cells. The class given is cell-based, human. As to conditions: 48 hours, 37 °C; HGF 25 ng/mL or QQT*-Cy5.5 5 or 100 μM; 3 independent experiments. How it is done:
(§1) An alamar blue assay was performed using HT29 and CCD841 cells. After culturing in serum free media overnight, ~3 × 10^3 cells were seeded per well in serum free media in 96 well plates at a final volume of 100 µL per well. […] Alamar blue reagent (10 µL) was added in amounts equal to 10% of the volume in the well, and incubated at 37 °C for 4 hours. Fluorescence with excitation at λex = 530–560 nm, and emission at λex = 590 nm was measured.
On the technique in general: Alamar Blue is a resazurin reagent that responds to reducing activity.

The test system of data set [1] is vascular endothelial growth factor A (VEGFA). As to conditions: IRDye800-labeled, intravenous, n = 17 FAP patients, cited from earlier work. An excerpt: Large molecules, such as antibodies, that have high target affinity are also being utilized for CRC imaging. Bevacizumab is a monoclonal antibody that has been repurposed for imaging by labeling with IRDye800 to detect overexpressed vascular endothelial growth factor A (VEGFA)[46]. This imaging agent was intravenously administered in a total of n = 17 patients with familial adenomatous polyposis (FAP), and n = 51 adenomas were detected. A median T/B ratio = 1.84 was achieved using a dose of 25 mg. Small adenomas with dimensions< 3 mm were detected. Antibodies have long circulation times that l ...

For a further data set, the system named is p-cMet. Nature of the data set: Western blot of p-cMet in HT29 cells. It is filed as cell-based, human. As to conditions: HT29, serum-starved; HGF 25 ng/mL or QQT*-Cy5.5 5 or 100 μM; 10, 30, 120 min. As to the method:
(§2) Peptides are added at concentrations of 5 and 100 μM for 10, 30, and 120 min. Anti-cMet antibody (#8198, Cell Signaling), phospho-cMet (Tyr1234/1235) antibody (#3077, Cell Signaling), anti-AKT (#4691, Cell Signaling), anti-phospho-AKT (#9271, Cell Signaling), anti-ERK1/2 (#ab17942, Abcam,), anti-phospho-ERK1/2 (#ab50011, Abcam), and anti-tubulin (#32-2600, Invitrogen) were used per manufacturer’s instructions.
(In western blotting, separated proteins are transferred to a membrane and probed.)

In the next data set the test system is p-AKT. Nature of the data set: Western blot of p-AKT in HT29 cells. It is filed as cell-based, human. As to conditions: HT29, serum-starved; HGF 25 ng/mL or QQT*-Cy5.5 5 or 100 μM; 10, 30, 120 min. As to the method: as §2
A further data set deals with p-ERK1/2. Nature of the data set: Western blot of p-ERK1/2 in HT29 cells. The class given is cell-based, human. As to conditions: HT29, serum-starved; HGF 25 ng/mL or QQT*-Cy5.5 5 or 100 μM; 10, 30, 120 min. How it is done:
as §2

The subject of the next data set is HT29 cells. Nature of the data set: Alamar blue growth assay, HT29 cells. The class given is cell-based, human. As to conditions: 48 hours, 37 °C; HGF 25 ng/mL or QQT*-Cy5.5 5 or 100 μM; 3 independent experiments. How it is done: as §1
In data set [2] the target is T1, cMet (Homo sapiens, UniProt P08581).
T1 construct: endogenous in cells; host or cells: HT29 human colorectal cancer cells (ATCC)
T1 sequence (P08581 25-1390): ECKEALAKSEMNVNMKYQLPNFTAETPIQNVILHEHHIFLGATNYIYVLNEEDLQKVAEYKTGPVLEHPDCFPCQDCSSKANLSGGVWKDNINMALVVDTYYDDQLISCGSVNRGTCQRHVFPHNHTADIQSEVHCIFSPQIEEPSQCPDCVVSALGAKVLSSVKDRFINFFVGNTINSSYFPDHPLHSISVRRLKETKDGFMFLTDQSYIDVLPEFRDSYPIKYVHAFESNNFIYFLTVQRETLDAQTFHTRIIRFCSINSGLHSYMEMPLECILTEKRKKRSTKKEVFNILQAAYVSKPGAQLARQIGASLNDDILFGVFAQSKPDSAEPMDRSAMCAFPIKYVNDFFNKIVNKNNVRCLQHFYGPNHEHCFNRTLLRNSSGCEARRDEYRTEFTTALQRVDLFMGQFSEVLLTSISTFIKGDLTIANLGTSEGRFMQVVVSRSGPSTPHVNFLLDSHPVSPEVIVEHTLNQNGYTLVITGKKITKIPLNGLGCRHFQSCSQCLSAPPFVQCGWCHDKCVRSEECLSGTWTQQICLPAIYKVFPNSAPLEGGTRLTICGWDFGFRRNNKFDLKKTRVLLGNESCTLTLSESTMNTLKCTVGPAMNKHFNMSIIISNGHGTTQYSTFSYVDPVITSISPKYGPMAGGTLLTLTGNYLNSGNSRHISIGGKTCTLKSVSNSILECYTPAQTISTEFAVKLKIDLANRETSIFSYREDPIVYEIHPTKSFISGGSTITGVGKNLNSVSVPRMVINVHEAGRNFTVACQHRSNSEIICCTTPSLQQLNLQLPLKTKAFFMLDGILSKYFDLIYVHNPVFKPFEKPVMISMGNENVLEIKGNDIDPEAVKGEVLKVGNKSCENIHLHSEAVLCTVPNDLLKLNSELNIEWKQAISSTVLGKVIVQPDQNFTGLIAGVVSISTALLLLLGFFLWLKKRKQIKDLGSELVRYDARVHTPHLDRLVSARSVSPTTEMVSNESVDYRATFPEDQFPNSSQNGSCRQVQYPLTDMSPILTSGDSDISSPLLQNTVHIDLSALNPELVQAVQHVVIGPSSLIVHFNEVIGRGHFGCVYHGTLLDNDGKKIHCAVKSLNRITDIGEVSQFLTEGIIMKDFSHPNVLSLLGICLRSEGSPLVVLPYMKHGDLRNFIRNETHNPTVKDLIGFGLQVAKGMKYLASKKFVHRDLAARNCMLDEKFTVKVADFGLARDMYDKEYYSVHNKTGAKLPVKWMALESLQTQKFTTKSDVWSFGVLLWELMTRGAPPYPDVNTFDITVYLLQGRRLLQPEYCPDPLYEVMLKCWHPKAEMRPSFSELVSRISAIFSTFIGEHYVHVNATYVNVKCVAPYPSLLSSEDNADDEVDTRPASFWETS
Description: Competition of unlabeled peptide for QQT*-Cy5.5 binding to HT29 cells. As to conditions: unlabeled peptide 0, 25, 50, 100, 200 and 400 μM, then 5 μM Cy5.5-labeled peptide, 3 replicate slides, 5 cells per slide. How it is done:
Unlabeled peptides at 0, 25, 50, 100, 200 and 400 μM were first added and then incubated with 5 μM of Cy5.5-labeled peptides. […] The cells were fixed with 4% PFA, and mounted with ProLong Gold reagent containing DAPI.

The subject of the next data set is mouse cMet-ECD. Nature of the data set: Pull-down assay with mouse cMet-ECD. It is filed as binding. As to conditions: peptide immobilized on EHS beads; Western blot; by comparison with TLQ*. As to the method: Interactions between peptide and mouse cMet were evaluated using a pull-down assay. Peptides were immobilized on EHS active beads (17-0906-01, GE), and incubated with purified mouse cMet-ECD protein (50622-M08H, Sino Biological). After washing, bound proteins were detected by Western blot.

The target in data set [3] is T1, cMet. Nature of the data set: Confocal microscopy of binding to HT29 cells with siRNA knockdown of cMet. How it is done:
(§3) The cells were blocked with 1X PBS plus 2% BSA for 1 hour at 4 °C, and were incubated with 5 μM of peptide for 10 min at room temperature (RT) in the dark, washed 3×, and fixed with 4% PFA for 5 min, washed with 1X PBS, and then mounted on glass slides with ProLong Gold reagent containing DAPI (Invitrogen). A 1:3000 dilution of primary monoclonal rabbit anti-cMet antibody (#8198, Cell Signaling Technology) was incubated with the cells in vitro as a positive control. Afterwards, the cells were incubated with a 1:500 dilution of AF488-labeled secondary goat ant-rabbit immunoglobulin G antibody (#A-11029, Life Technologies), and then mounted on glass slides with ProLong Gold reagent containing DAPI. Confocal fluorescence images were collected using a 63X oil-immersion objective (Leica SP5 Inverted 2-Photon FLIM confocal). Fluorescence intensities were quantified using custom Matlab software (Mathworks).
Expression of cMet by HT29 cells was knocked down using siRNA (siRNA1, SASI_Hs01_00133002, Sigma). MISSION® siRNA Universal Negative Control (SIC001, Sigma) was used for control. Cells were transfected with Lipofectamine 2000 (11668027, Invitrogen) per manufacturer instructions, and incubated with 5 μM of peptide for 5 min. A 1:3000 dilution of primary monoclonal rabbit anti-cMet antibody (Cell Signaling Technology, #8198) was used for positive control.

Data set [4] concerns the target T1, cMet. Description: Confocal microscopy of binding to HT29 (cMet+) versus SW480 (cMet-) CRC cells. As to the method:
as §3

Data set [5] relates to cMet. Description: Confocal microscopy of binding to S114 (cMet+) versus NIH3T3 (cMet-) cells. Also noted: species or system mouse. As to the method: Human HT29, SW480, CCD841 colorectal cancer cells and mouse NIH 3T3 embryonic fibroblast cells were obtained from the ATCC. S114 cells (NIH 3T3 cells transformed to express cMet) were provided by courtesy of G Vande Woude (Van Andel Institute). McCoy’s 5A Medium (Gibco) was used for HT29 cells. Dulbecco’s Modified Eagle Medium (Gibco) were used for SW480, NIH3T3, and S114 cells. Eagle’s Minimum Essential Medium (Lonza) was used for CCD841. All cells were cultured at 37 °C in 5% CO2, and supplemented with 10% fetal bovine serum. Reagents for peptide synthesis were obtained from Anaspec (Anaspec) and AAPPTEC (AAPPTEC) at the highest available grade (>99% purity), and were used without further purification. Solvents and other chemical reagents were purchased (Sigma-Aldrich) unless stated otherwise.
as §3

The test system of data set [6] is cMet. Nature of the data set: In vivo fluorescence endoscopy of colonic adenomas in CPC;Apc mice. As to conditions: intra-rectal 100 μM, 1.5 mL, control peptide 3 days later. Also noted: species or system mouse. How it is done:
CPC;Apc mice were used for in vivo imaging. This mouse was genetically engineered to sporadically delete an adenomatous polyposis coli (APC) allele under control of a Cdx2 promoter (CDX2P-9.5NLS-Cre) to spontaneously form either flat or polypoid adenomas in the distal colon. Prior to imaging, the mice were fasted for 4–6 hours. Anesthesia was induced and maintained via a nose cone with inhaled isoflurane mixed with oxygen at concentrations of 2–4% at a flow rate of 0.5 L/min. A rigid small animal endoscope (Karl Storz Veterinary Endoscopy) was inserted into the rectum. White-light illumination was used first to identify the presence of adenomas. Peptides (100 μM, 1.5 mL) were delivered intra-rectally through the instrument channel. After 5 min for incubation, the colon was rinsed with warm tap water 3X to remove stool and debris prior to image collection. After 3 days for the signal from the target peptide to clear, the same mice were imaged using the control peptide. A ratio of the fluorescence and reflectance images was determined to correct for differences in distance and geometry over the image field-of-view (FOV)[33]. […] The mean fluorescence intensity was used to calculate the target-to-background (T/B) ratios. Images were processed and analyzed using custom software in Matlab (Mathworks)[34].

For data set [7], the target named is T2, cMet on human HT29 CRC cells (human (endogenous in HT29), UniProt P08581 25-1390).
T2 construct: cMet, transmembrane tyrosine kinase receptor (hepatocyte growth factor receptor), human; Alpha and beta chains are cut from one precursor; written as one chain; also called HT29 cells (cMet+); source: endogenous, on HT29 cells
T2 sequence (P08581 25-1390): as above
Description: flow cytometry on cells; HT29 cells incubated with peptide at 0-200 nM for 1 hour at 4 °C; apparent dissociation constant by nonlinear regression. As to conditions: one partner purified.

Data set [8] deals with T2, cMet on human HT29 CRC cells. Nature of the data set: immunostaining of cells or tissue; confocal fluorescence microscopy of cells incubated with 5 μM Cy5.5-labeled peptide (5-10 min, RT), washed, fixed with 4% PFA; HT29 transfected with siCL or sicMet; HT29 versus SW480; S114 versus NIH3T3. As to conditions: one partner purified.
Setting [9] is: 6 replicate slides per condition, 10 cells per slide.

Where a SMILES comes first, the peptide text is derived from it. Where no end group is shown, it is not given here. The star is where a group is joined. X1 = CN1/C(=C/C=C/C=C/C2=[N+](CCCCCC(=O)*)c3ccc4ccccc4c3C2(C)C)C(C)(C)c2c1ccc1ccccc21

Regarding `CC(C)C[C@H](NC(=O)[C@H](CO)NC(=O)[C@H](Cc1c[nH]c2ccccc12)NC(=O)[C@H](CC(N)=O)NC(=O)[C@@H](NC(=O)[C@H](CCC(N)=O)NC(=O)[C@@H](N)CCC(N)=O)[C@@H](C)O)C(=O)NCC(=O)NCC(=O)NCC(=O)N[C@@H](CO)C(=O)N[C@@H](CCCCNC(=O)CCCCC[N+]1=C(/C=C/C=C/C=C2/N(C)c3ccc4ccccc4c3C2(C)C)C(C)(C)c2c1ccc1ccccc21)C(N)=O` [QQT*-Cy5.5] (H-QQTNWSLGGGSK(X1)-NH2), the “Growth of CCD841 normal colon cells” value in the data set with CCD841 cells was “no effect on growth”.
As to “Bevacizumab: monoclonal antibody repurposed for imaging by labeling with IRDye800 to detect overexpressed VEGFA”, the “Median T/B ratio” value in data set [1] (25 mg) is listed as 1.84. Moreover, in data set [1], the “Dimensions of small adenomas detected” value is reported as below 3 mm and the “Number of adenomas detected” value is recorded as 51.
Take “HGF: recombinant human hepatocyte growth factor (HGF, 294-HG-005, R&D), a known ligand for cMet”: the “Phosphorylation of cMet (p-cMet)” value with p-cMet is on record as “strong phosphorylation activity”. For the same molecule, the “Phosphorylation of downstream AKT (p-AKT)” value in the data set with p-AKT is given as “strong phosphorylation activity”. For the same molecule, the “Phosphorylation of downstream ERK1/2 (p-ERK1/2)” value with p-ERK1/2 was “strong phosphorylation activity”. For the same molecule, in the data set with HT29 cells, the “Growth of HT29 cells” value was “increased growth”. The “Growth of CCD841 normal colon cells” value with CCD841 cells is given as “not (C) CCD841 cells”.
Turning to QQTNWSL [QQT*], on cMet [2], the “Competition: fluorescence intensity of QQT*-Cy5.5 binding with increasing unlabeled peptide” value is reported as “decreased significantly”. In addition, the “Pull-down band for binding to mouse cMet-ECD” value in the data set with mouse cMet-ECD is “strong band”.
With “TLQWNQS [TLQ*, unlabeled control peptide TLQ*]”, the “Competition: fluorescence intensity of QQT*-Cy5.5 binding with increasing unlabeled peptide” value on cMet [2] is “not with TLQ*”.
Consider TLQWNQS [TLQ*-Cy5.5], for which the “Change in fluorescence intensity, siCL versus sicMet (in words)” value on cMet [3] (HT29, ANOVA on log-transformed data, 6 replicate slides per condition) is reported as “non-significant decrease”. In addition, at cMet [3] (HT29 siCL, peptide 5 μM, antibody 1:3000, confocal fluorescence), the “Binding to surface of HT29 cells transfected with siCL (control)” value is on record as “minimal binding”. For the same molecule, the “Binding to HT29 cells transfected with sicMet (cMet knockdown)” value on cMet [3] (HT29 sicMet, peptide 5 μM, 5 min, antibody 1:3000, confocal fluorescence) is on record as “little binding”. Moreover, the “Change in mean intensity, HT29 versus SW480 (in words)” value at cMet [4] (setting [9]) is “non-significant decrease”. Also, the “Binding to surface of HT29 cells (cMet+)” value on cMet [4] (HT29, confocal, peptide 5 μM 10 min RT, antibody 1:3000) is listed as “minimal binding”. Also, the “Binding to SW480 cells (cMet-)” value at cMet [4] (SW480, confocal, peptide 5 μM 10 min RT, antibody 1:3000) is given as “minimal binding”. For the same molecule, the “Change in mean intensity, S114 versus NIH3T3 (in words)” value in the data set on cMet [5] (setting [9]) is on record as “non-significant increase”. Besides, the “Binding to NIH3T3 cells (cMet-)” value in the data set on cMet [5] (NIH3T3, confocal, peptide 5 μM 10 min RT, antibody 1:3000) is reported as “nominal binding”. Besides, the “Binding to surface of S114 cells (cMet+)” value in the data set on cMet [5] (S114, confocal, peptide 5 μM 10 min RT, antibody 1:3000) is “minimal binding”. Further, the “Fluorescence from representative polyp” value with cMet [6] is “minimal signal”. For the same molecule, the “Fluorescence from representative flat lesion” value with cMet [6] (same lesion) is “minimal signal”.

B1: QQT*-Cy5.5 (peptide)
peptide: QQTNWSLGGGSK-{Cy5.5}
modifications: not fully specified
notes: heptapeptide selected by phage display (Ph.D.-7 library) against the extra-cellular domain of cMet; linker between the peptide and Cy5.5; also called QQTNWSL; cMet peptide; source: synthetic peptide (Fmoc solid-phase synthesis, purified with HPLC)
Take B1: in [7], the Kd was 57 nM. Moreover, in [8], the “fold change of fluorescence intensity against TLQ*-Cy5.5” value was found to be 8.1 fold and the “fold change of fluorescence intensity, siCL versus sicMet transfected cells” value worked out at 2.9 fold.
